Reference: patent publication US7960339B2, “Antimicrobial peptides” (Österreichische Akademie der Wissenschaften, priority 2006, dated 2011)
Peptide text beside a SMILES is read from it. * marks the point of attachment. Octanoyl = CCCCCCCC(=O)*

Tested on: C. neoformans ATCC 32045
Format: cell-based
Conditions: ATCC 32045, 72 h
Method: C. neoformans ATCC 32045 cultures were maintained on yeast medium (YM; Difco Laboratories, Detroit, Mich.) agar plates at 4° C. Prior to the assay, the cultures were grown on agar plates and incubated for 72 hrs at 26° C. Two colonies of these newly grown fungal cultures were then inoculated in 5 ml of 2×YM broth, vortexed, and diluted 10-fold in 2×YM broth, for an approximate final assay concentration of 1×105 to 5×10^5 CFU/ml. In 96-well tissue culture plates, fungal suspensions in 2×YM broth were added to the peptides dispensed at concentrations ranging from 1 mg/ml to 1 μg/ml derived from serial twofold dilutions in sterile water. The plates were then incubated for 72 hrs at 26° C. The relative percent growth of the fungi found for each test sample was determined by the optical density at 620 nm (OD620) by using a Titertek Multiskan Plus apparatus. […] The IC50 were calculated by using a sigmoidal curve-fitting software program (Graphpad Prism; ISI Software, San Diego, Calif.).

average IC50 | average MIC | SMILES
2 µg/mL | 4 µg/mL | CCCCCCCC(=O)N[C@@H](CCCNC(=N)N)C(=O)N[C@@H](Cc1c[nH]c2ccccc12)C(=O)N[C@@H](CCCCN)C(=O)N[C@@H](CCCNC(=N)N)C(=O)N[C@H](C(=O)N[C@@H](CC(N)=O)C(=O)N[C@@H](CCCNC(=N)N)C(=O)N[C@@H](CCC(N)=O)C(=O)N[C@@H](Cc1c[nH]c2ccccc12)C(=O)N[C@@H](Cc1ccccc1)C(N)=O)[C@@H](C)CC [VS1-45, octanoyl RWKRINRQWF-NH2] (Octanoyl-RWKRINRQWF-NH2)
10 µg/mL | 32 µg/mL | CCCCCCCC(=O)N[C@@H](Cc1ccccc1)C(=O)N[C@@H](Cc1c[nH]c2ccccc12)C(=O)N[C@@H](CCCNC(=N)N)C(=O)N[C@@H](CCCNC(=N)N)C(=O)N[C@@H](Cc1ccccc1)C(=O)N[C@@H](Cc1c[nH]c2ccccc12)C(=O)N[C@@H](CCCNC(=N)N)C(=O)N[C@@H](CCCNC(=N)N)C(N)=O [VS1-60, octanoyl FWRRFWRR-NH2] (Octanoyl-FWRRFWRR-NH2)
6 µg/mL | 16 µg/mL | CCCCCCCC(=O)N1CCC[C@H]1C(=O)N[C@@H](Cc1ccccc1)C(=O)N[C@@H](Cc1c[nH]c2ccccc12)C(=O)N[C@@H](CCCNC(=N)N)C(=O)N[C@H](C(=O)N[C@@H](CCCNC(=N)N)C(=O)N[C@H](C(=O)N[C@@H](CCCNC(=N)N)C(=O)N[C@@H](CCCNC(=N)N)C(N)=O)[C@@H](C)CC)[C@@H](C)CC [VS1-50, octanoyl PFWRIRIRR-NH2] (Octanoyl-PFWRIRIRR-NH2)

Continued, compound first:

SMILES | average IC50 | average MIC
CC[C@H](C)[C@H](NC(=O)[C@H](CCC(N)=O)NC(=O)[C@H](CCCNC(=N)N)NC(=O)[C@H](CCCNC(=N)N)NC(=O)[C@H](Cc1c[nH]c2ccccc12)NC(=O)[C@H](Cc1ccccc1)NC(=O)[C@@H]1CCCN1)C(=O)N[C@@H](CCCNC(=N)N)C(=O)N[C@@H](CCCNC(=N)N)C(N)=O [VS1-26, PFWRRQIRR-NH2] (H-PFWRRQIRR-NH2; N-terminus assumed) | 6 µg/mL | 32 µg/mL
CC(C)C[C@H](NC(=O)[C@H](CCCNC(=N)N)NC(=O)[C@H](CCCCN)NC(=O)[C@H](CCCNC(=N)N)NC(=O)[C@H](Cc1c[nH]c2ccccc12)NC(=O)[C@H](Cc1ccccc1)NC(=O)[C@@H]1CCCN1)C(=O)N[C@@H](CCCNC(=N)N)C(=O)N[C@@H](CCCNC(=N)N)C(N)=O [VS1-29, PFWRKRLRR-NH2] (H-PFWRKRLRR-NH2; N-terminus assumed) | 9 µg/mL | 32 µg/mL
CC[C@H](C)[C@H](NC(=O)[C@H](CCCNC(=N)N)NC(=O)[C@@H](NC(=O)[C@H](CCCNC(=N)N)NC(=O)[C@H](Cc1c[nH]c2ccccc12)NC(=O)[C@H](Cc1ccccc1)NC(=O)[C@H](Cc1ccccc1)NC(=O)[C@@H]1CCCN1)[C@@H](C)CC)C(=O)N[C@@H](CCCNC(=N)N)C(=O)N[C@@H](CCCNC(=N)N)C(N)=O [VS1-24, PFFWRIRIRR-NH2] (H-PFFWRIRIRR-NH2; N-terminus assumed) | 3 µg/mL | 8 µg/mL
N=C(N)NCCC[C@H](NC(=O)[C@H](CCCNC(=N)N)NC(=O)[C@H](Cc1c[nH]c2ccccc12)NC(=O)[C@H](CCCNC(=N)N)NC(=O)[C@H](CCCCN)NC(=O)[C@H](CCCNC(=N)N)NC(=O)[C@H](Cc1c[nH]c2ccccc12)NC(=O)[C@H](Cc1ccccc1)NC(=O)[C@@H]1CCCN1)C(N)=O [VS1-31, PFWRKRWRR-NH2] (H-PFWRKRWRR-NH2; N-terminus assumed) | 8 µg/mL | 32 µg/mL
N=C(N)NCCC[C@H](NC(=O)[C@H](CCCNC(=N)N)NC(=O)[C@H](Cc1c[nH]c2ccccc12)NC(=O)[C@H](CCCNC(=N)N)NC(=O)[C@H](CCCNC(=N)N)NC(=O)[C@H](CCCNC(=N)N)NC(=O)[C@H](Cc1c[nH]c2ccccc12)NC(=O)[C@H](Cc1ccccc1)NC(=O)[C@@H]1CCCN1)C(N)=O [VS1-33, PFWRRRWRR-NH2] (H-PFWRRRWRR-NH2; N-terminus assumed) | 9 µg/mL | 32 µg/mL
